Results reported in ChEMBL document CHEMBL5634117 (Eur J Med Chem, 2023).
The source made the active and inactive calls. The rule behind the calls is not given here.

Columns and labels:
K562 [1] = assay: Induction of cell cycle arrest in human K562 cells assessed as accumulation of cells at S phase at 2.56 uM measured after 24 hrs by PI staining based flow cytometry analysis (reference value: 24.75%); type: functional
[2] = Cytotoxicity against African green monkey Vero cells assessed as decrease in number of viable cells at 30 uM measured after 48 hrs by SRB assay relative to control; type: toxicity, cell-based; details: chlorocebus sabaeus
K562 [3] = assay: Induction of autophagy in human K562 cells assessed as increase in beclin-1 level at 1.28 uM measured after 24 hrs by Western blotting analysis; type: functional, cell-based
[4] = Cytotoxicity against African green monkey Vero cells assessed as decrease in population of viable cells at 0 to 10 uM measured after 48 hrs by SRB assay relative to control; type: toxicity, cell-based; details: chlorocebus sabaeus, dose 0-10 µM
K562 [5] = assay: Induction of cell cycle arrest in human K562 cells assessed as accumulation of cells at SubG1 phase at 1.28 uM measured after 24 hrs by PI staining based flow cytometry analysis (reference value: 2.21%); type: functional
K562 [6] = assay: Induction of apoptosis in human K562 cells assessed as late apoptotic cells at 0.64 uM incubated for 24 hrs by annexinV and propidium iodide staining based flow cytometry analysis (reference value: 0.82%); type: functional
K562 [7] = assay: Induction of autophagy in human K562 cells assessed as increase in beclin-1 level at 2.56 uM measured after 24 hrs by Western blotting analysis; type: functional, cell-based
K562 [8] = assay: Induction of apoptosis in human K562 cells assessed as early apoptotic cells at 0.64 uM incubated for 24 hrs by annexinV and propidium iodide staining based flow cytometry analysis (reference value: 1.17%); type: functional
K562 [9] = assay: Induction of cell cycle arrest in human K562 cells assessed as accumulation of cells at S phase at 0.64 uM measured after 24 hrs by PI staining based flow cytometry analysis (reference value: 24.75%); type: functional
[10] = Cytotoxicity against African green monkey Vero cells assessed as decrease in number of viable cells at 100 uM measured after 48 hrs by SRB assay relative to control; type: toxicity, cell-based; details: chlorocebus sabaeus
K562 [11] = assay: Induction of cell cycle arrest in human K562 cells assessed as accumulation of cells at G2/M phase at 1.28 uM measured after 24 hrs by PI staining based flow cytometry analysis (reference value: 25.62%); type: functional
K562 [12] = assay: Induction of cell cycle arrest in human K562 cells assessed as accumulation of cells at S phase at 1.28 uM measured after 24 hrs by PI staining based flow cytometry analysis (reference value: 24.75%); type: functional
K562 [13] = assay: Induction of cell cycle arrest in human K562 cells assessed as accumulation of cells at G0/G1 phase at 0.64 uM measured after 24 hrs by PI staining based flow cytometry analysis (reference value: 46.72%); type: functional
K562 [14] = assay: Induction of apoptosis in human K562 cells assessed as early apoptotic cells at 1.28 uM incubated for 24 hrs by annexinV and propidium iodide staining based flow cytometry analysis (reference value: 1.17%); type: functional
K562 [15] = assay: Induction of cell cycle arrest in human K562 cells assessed as accumulation of cells at SubG1 phase at 0.64 uM measured after 24 hrs by PI staining based flow cytometry analysis (reference value: 2.21%); type: functional
K562 [16] = assay: Induction of autophagy in human K562 cells assessed as increase in beclin-1 level at 1.28 to 2.56 uM measured after 24 hrs by Western blotting analysis; type: functional, cell-based; details: dose 1.28-2.56 µM
K562 [17] = assay: Induction of cell cycle arrest in human K562 cells assessed as accumulation of cells at SubG1 phase at 0.64 uM measured after 24 hrs by PI staining based flow cytometry analysis (reference value: 2.48%); type: functional
K562 [18] = assay: Induction of cell cycle arrest in human K562 cells assessed as accumulation of cells at G0/G1 phase at 2.56 uM measured after 24 hrs by PI staining based flow cytometry analysis (reference value: 46.71%); type: functional
K562 [19] = assay: Induction of cell cycle arrest in human K562 cells assessed as accumulation of cells at SubG1 phase at 5 uM measured after 24 hrs by PI staining based flow cytometry analysis (reference value: 3.43%); type: functional
K562 [20] = assay: Induction of apoptosis in human K562 cells assessed as early apoptotic cells at 2.5 uM incubated for 24 hrs by annexinV and propidium iodide staining based flow cytometry analysis (reference value: 0.42%); type: functional
K562 [21] = assay: Induction of cell cycle arrest in human K562 cells assessed as accumulation of cells at G0/G1 phase at 1.28 uM measured after 24 hrs by PI staining based flow cytometry analysis (reference value: 46.71%); type: functional
K562 [22] = assay: Induction of apoptosis in human K562 cells assessed as late apoptotic cells at 1.28 uM incubated for 24 hrs by annexinV and propidium iodide staining based flow cytometry analysis (reference value: 1.34%); type: functional
K562 [23] = assay: Induction of cell cycle arrest in human K562 cells assessed as accumulation of cells at SubG1 phase at 2.5 uM measured after 24 hrs by PI staining based flow cytometry analysis (reference value: 3.43%); type: functional
K562 [24] = assay: Induction of cell cycle arrest in human K562 cells assessed as accumulation of cells at G0/G1 phase at 1.25 uM measured after 24 hrs by PI staining based flow cytometry analysis (reference value: 46.67%); type: functional
K562 [25] = assay: Induction of autophagy in human K562 cells assessed as increase in beclin-1 level at 2.5 to 5 uM measured after 24 hrs by Western blotting analysis; type: functional, cell-based; details: dose 2.5-5 µM
K562 [26] = assay: Induction of apoptosis in human K562 cells assessed as late apoptotic cells at 2.56 uM incubated for 24 hrs by annexinV and propidium iodide staining based flow cytometry analysis (reference value: 1.34%); type: functional
K562 [27] = assay: Induction of apoptosis in human K562 cells assessed as late apoptotic cells at 1.25 uM incubated for 24 hrs by annexinV and propidium iodide staining based flow cytometry analysis (reference value: 1.34%); type: functional
K562 [28] = assay: Induction of apoptosis in human K562 cells assessed as early apoptotic cells at 1.25 uM incubated for 24 hrs by annexinV and propidium iodide staining based flow cytometry analysis (reference value: 0.42%); type: functional
K562 [29] = assay: Induction of apoptosis in human K562 cells assessed as early apoptotic cells at 0.64 uM incubated for 24 hrs by annexinV and propidium iodide staining based flow cytometry analysis (reference value: 0.42%); type: functional
K562 [30] = assay: Induction of cell cycle arrest in human K562 cells assessed as accumulation of cells at G2/M phase at 1.28 uM measured after 24 hrs by PI staining based flow cytometry analysis (reference value: 29.092%); type: functional
K562 [31] = assay: Induction of cell cycle arrest in human K562 cells assessed as accumulation of cells at S phase at 5 uM measured after 24 hrs by PI staining based flow cytometry analysis (reference value: 20.42%); type: functional
K562 [32] = assay: Induction of cell cycle arrest in human K562 cells assessed as accumulation of cells at G2/M phase at 1.25 uM measured after 24 hrs by PI staining based flow cytometry analysis (reference value: 29.44%); type: functional
K562 [33] = assay: Induction of cell cycle arrest in human K562 cells assessed as accumulation of cells at G2/M phase at 2.5 uM measured after 24 hrs by PI staining based flow cytometry analysis (reference value: 29.44%); type: functional

SMILES: CC(C)(C)n1cc(-c2ccnc(NCCCNS(=O)(=O)c3ccc(Cl)cc3)c2)c(-c2cccc(O)c2)n1
- Activity (K562 [1]): 4.89%
- Activity [2]: 53%
- Activity (K562 [3]): Active
- Activity [4]: 68%
- Activity (K562 [5]): 0.23%
- Activity (K562 [6]): 0.48%
- Activity (K562 [7]): inactive
- Activity (K562 [8]): 1.07%
- Activity (K562 [9]): 30.99%
- Activity [10]: 27%
- Activity (K562 [11]): 58.95%
- Activity (K562 [12]): 32.68%
- Activity (K562 [13]): 25.21%
- Activity (K562 [14]): 1.94%
- Activity (K562 [15]): 2.16%

SMILES: O=C1c2ccccc2-c2n[nH]c3cccc1c23
- Activity (K562 [16]): Active
- Activity (K562 [17]): 4.68%
- Activity (K562 [18]): 37.63%
- Activity (K562 [19]): 4.01%
- Activity (K562 [20]): 1.17%
- Activity (K562 [21]): 28.15%
- Activity (K562 [22]): 1.25%
- Activity (K562 [23]): 4.35%
- Activity (K562 [24]): 34.01%
- Activity (K562 [25]): Active
- Activity (K562 [26]): 3.7%
- Activity (K562 [27]): 1.47%
- Activity (K562 [28]): 0.72%
- Activity (K562 [29]): 1.59%
- Activity (K562 [30]): 47.55%
- Activity (K562 [31]): 20.04%
- Activity (K562 [32]): 41.64%
- Activity (K562 [33]): 45.34%
